Here are results for 7 compounds from patent US10004786B2 (Zealand Pharma A/S, priority 2009, dated 2018).

One data set deals with T1, human Glucagon-R (Homo sapiens, UniProt P47871).
T1 construct: expressed in transfected cells
The data set is described as follows: Glucagon receptor efficacy assay (cAMP formation in HEK293 cells expressing human Glucagon-R). Format: cell-based. The note with it: Table 1a, HEK293 cells expressing hGlucagonR, read-out: EC50 (nM) GluR. On the procedure:
The 5′-end primers additionally encoded a near Kozak consensus sequence to ensure efficient translation.
48 hr after transfection cells were seeded for limited dilution cloning and selected with 1 mg/ml G418 in the culture medium.
On the day of analysis, growth medium was removed and the cells washed once with 200 μl Tyrode buffer. […] The reaction was stopped by addition of 25 μl 0.5 M HCl and incubated on ice for 60 min. The cAMP content was estimated using the FlashPlate® cAMP kit from Perkin-Elmer.
Efficacy of the GluGLP-1 agonists were estimated by exposing cells expressing hGlucagonR and hGLP-1R to the listed acylated compounds at increasing concentrations and measuring the formed cAMP as described in Methods.

A short description of data set [1]: Food intake in young lean and old obese C57BL/6J mice. Format: in vivo. As to conditions: s.c. at t=0 h and t=12 h, p<0.05 versus vehicle. The method, then: C57BL/6J mice were on a high fat diet for 11 days and C57BL/6J mice were on a high fat diet for 52 weeks.
3 days before study, the mice were transferred to individual cages and weighed. 4 days before study, they were acclimatized to handling and treatment by daily s.c. injections. On the day before the experiment food was removed at 20:00. […] Immediately after treatment (t=0), pre-weighed food were introduced to the mice and the cumulative food intake was measured by weighing the remaining food after t=1, 2, 4, 8, 12 and 24 hours. After weighing the food and the animals at t=24 h, the mice were sacrificed by cervical dislocation.
Immediately after treatment (t=0), pre-weighed food were introduced to the mice and the cumulative food intake was measured by weighing the remaining food after t=1, 2, 4, 8, 12 and 24 hours.

Data set [2] in a line: Body weight gain in high fat fed C57BL/6J mice (10 days). Format: in vivo. The note with it: short term high fat-fed C57BL/6J mice. On the procedure: C57Bl/6J male mice, 6 weeks old, were acclimatized in their new environment for 4 weeks with free access to high fat diet (HFD) (D12492, Research Diet Inc., New Brunswick, USA) and water. The animals were injected s.c. with 100 μl vehicle for a period of three days to acclimatize the animals to handling and injections, prior to initiation of peptide treatment. […] Throughout the study, body weights were recorded daily and used to administer the body weight-corrected doses of peptide. All animals were sacrificed on the same day by cervical dislocation.
C57Bl/6J male mice on high fat diet (HFD) were treated (b.i.d.; s.c.) (0.5 and 5 nmol/kg) or vehicle. Body weights were recorded daily and used to administer the body weight-corrected doses of peptide throughout the study. Data are shown as mean±SEM in FIG. 7.

Data set [3] can be described thus: Liver weight/body weight of C57BL/6J mice treated for 2 weeks. Format: in vivo. As to conditions: 5 nmol/kg twice daily s.c. The method, then: Mice were treated twice daily s.c. with Cpd. 1 and Cpd. 11 (at two doses: 0.5 and 5 nmol/kg) or vehicle for 2 weeks. Throughout the study, body weights were recorded daily and used to administer the body weight-corrected doses of peptide. On the day of sacrifice, the liver was exposed, and weighed.

Data set [4] in a line: Pharmacokinetic screening in mouse plasma after subcutaneous administration. Format: in vivo. As to conditions: sc, mice, 100 nmol/kg s.c., * = only two time points used for calculation. The method, then:
Mice were dosed 100 nmol/kg subcutaneously (s.c.). The mice were sacrificed and the blood collected at the following time points; 0.5, 2, 4, 6, 16 and 24 h. Plasma samples were analyzed using protein precipitation, followed by solid phase extraction (SPE) and liquid chromatography mass spectrometry (LC-MS).
Pharmacokinetic profiles were determined for various acylated compounds.

Numbered stars: 1 amine (or outer) side, 2 acyl side, 3 side chain; on linkers, the order of the positions; unused ones are H or OH. Square brackets hold non-standard residues; d marks the D form. Side chains are listed from the residue outwards. Peptide text beside a SMILES is read from it. * marks the point of attachment. γGlu = O=C(O)[C@H](CCC(=O)[*:2])N[*:1]; Palmitoyl = CCCCCCCCCCCCCCCC(=O)*; Aib = CC(C)(N)C(=O)O

T1 sequence (P47871 26-477): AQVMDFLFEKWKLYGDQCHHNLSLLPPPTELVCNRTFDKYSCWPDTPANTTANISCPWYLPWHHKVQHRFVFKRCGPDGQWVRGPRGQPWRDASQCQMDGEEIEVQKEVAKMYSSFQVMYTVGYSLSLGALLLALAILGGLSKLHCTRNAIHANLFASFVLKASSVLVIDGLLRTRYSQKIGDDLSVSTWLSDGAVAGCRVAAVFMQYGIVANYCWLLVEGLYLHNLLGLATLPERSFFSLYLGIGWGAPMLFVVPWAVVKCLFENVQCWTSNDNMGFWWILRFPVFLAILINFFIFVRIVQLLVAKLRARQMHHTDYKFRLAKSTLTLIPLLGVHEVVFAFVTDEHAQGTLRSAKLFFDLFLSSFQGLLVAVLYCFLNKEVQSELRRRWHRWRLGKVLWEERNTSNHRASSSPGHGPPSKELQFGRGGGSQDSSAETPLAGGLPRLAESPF

Consider `CCCCCCCCCCCCCCCC(=O)N[C@@H](CCC(=O)NCCCC[C@H](NC(=O)[C@H](CC(C)C)NC(=O)[C@H](CC(C)C)NC(=O)[C@H](Cc1c[nH]c2ccccc12)NC(=O)[C@H](CCC(=O)O)NC(=O)[C@@H](NC(=O)[C@H](Cc1ccccc1)NC(=O)[C@H](CC(=O)O)NC(=O)[C@H](Cc1c[nH]cn1)NC(=O)[C@H](C)NC(=O)[C@H](C)NC(=O)[C@H](CCCCN)NC(=O)[C@H](CO)NC(=O)[C@H](CC(=O)O)NC(=O)[C@H](CC(C)C)NC(=O)[C@H](Cc1ccc(O)cc1)NC(=O)[C@H](CCCCN)NC(=O)[C@H](CO)NC(=O)[C@H](Cc1ccc(O)cc1)NC(=O)[C@H](CC(=O)O)NC(=O)[C@H](CO)NC(=O)[C@@H](NC(=O)[C@H](Cc1ccccc1)NC(=O)[C@@H](NC(=O)CNC(=O)[C@H](CCC(N)=O)NC(=O)C(C)(C)NC(=O)[C@@H](N)Cc1c[nH]cn1)[C@@H](C)O)[C@@H](C)O)C(C)C)C(=O)N[C@@H](C)C(N)=O)C(=O)O` [Compound 37] (H-H[Aib]QGTFTSDYSKYLDSKAAHDFVEWLLK([γGlu-Palmitoyl])A-NH2), for which, at human Glucagon-R, the EC50 was found to be 0.147 nM.

Consider `CCCCCCCCCCCCCCCC(=O)N[C@@H](CCC(=O)NCCCC[C@H](NC(=O)[C@H](CO)NC(=O)[C@H](CC(=O)O)NC(=O)[C@H](CC(C)C)NC(=O)[C@H](Cc1ccc(O)cc1)NC(=O)[C@H](CCCCN)NC(=O)[C@H](CO)NC(=O)[C@H](Cc1ccc(O)cc1)NC(=O)[C@H](CC(=O)O)NC(=O)[C@H](CO)NC(=O)[C@@H](NC(=O)[C@H](Cc1ccccc1)NC(=O)[C@@H](NC(=O)CNC(=O)[C@H](CCC(N)=O)NC(=O)C(C)(C)NC(=O)[C@@H](N)Cc1c[nH]cn1)[C@@H](C)O)[C@@H](C)O)C(=O)N[C@@H](C)C(=O)N[C@@H](C)C(=O)N[C@@H](Cc1c[nH]cn1)C(=O)N[C@@H](CC(=O)O)C(=O)N[C@@H](Cc1ccccc1)C(=O)N[C@H](C(=O)N[C@@H](CCC(=O)O)C(=O)N[C@@H](Cc1c[nH]c2ccccc12)C(=O)N[C@@H](CC(C)C)C(=O)N[C@@H](CC(C)C)C(=O)N[C@@H](CCC(=O)O)C(=O)N[C@@H](C)C(N)=O)C(C)C)C(=O)O` [Compound 43] (H-H[Aib]QGTFTSDYSKYLDSK([γGlu-Palmitoyl])AAHDFVEWLLEA-NH2), for which, on human Glucagon-R, the EC50 was determined as 0.12 nM.

`CCCCCCCCCCCCCCCC(=O)N[C@@H](CCC(=O)NCCCC[C@H](NC(=O)[C@H](C)NC(=O)[C@H](C)NC(=O)[C@H](CCCCN)NC(=O)[C@H](CO)NC(=O)[C@H](CC(=O)O)NC(=O)[C@H](CC(C)C)NC(=O)[C@H](Cc1ccc(O)cc1)NC(=O)[C@H](CCCCN)NC(=O)[C@H](CO)NC(=O)[C@H](Cc1ccc(O)cc1)NC(=O)[C@H](CC(=O)O)NC(=O)[C@H](CO)NC(=O)[C@@H](NC(=O)[C@H](Cc1ccccc1)NC(=O)[C@@H](NC(=O)CNC(=O)[C@H](CCC(N)=O)NC(=O)C(C)(C)NC(=O)[C@@H](N)Cc1c[nH]cn1)[C@@H](C)O)[C@@H](C)O)C(=O)N[C@@H](CC(=O)O)C(=O)N[C@@H](Cc1ccccc1)C(=O)N[C@H](C(=O)N[C@@H](CCC(=O)O)C(=O)N[C@@H](Cc1c[nH]c2ccccc12)C(=O)N[C@@H](CC(C)C)C(=O)N[C@@H](CC(C)C)C(=O)N[C@@H](CO)C(=O)N[C@@H](C)C(N)=O)C(C)C)C(=O)O` [Compound 35] (H-H[Aib]QGTFTSDYSKYLDSKAAK([γGlu-Palmitoyl])DFVEWLLSA-NH2): the half-maximal effective concentration (EC50) on human Glucagon-R turned out to be 0.18 nM.

For the compound Exendin-4 [reference compound], the “food intake, old obese mice” value in data set [1] (high fat diet for 52 weeks) is “reduced food intake in all time periods”. For the same compound, in data set [1] (high fat diet for 11 days), the “food intake, young lean mice” value is “reduced food intake during the 0-2, 0-4, 0-8, 0-12 and 0-24 time periods”. The “body weight gain, low dose” value in data set [2] (0.5 nmol/kg b.i.d. s.c.) was “significantly decreased body weight gain at both doses”. Also, in data set [2] (5 nmol/kg b.i.d. s.c.), the “body weight gain, high dose” value is listed as “significantly decreased body weight gain at both doses”.

For the compound `CCCCCCCCCCCCCCCC(=O)N[C@@H](CCC(=O)NCCCC[C@H](NC(=O)[C@H](CO)NC(=O)[C@H](CC(=O)O)NC(=O)[C@H](CC(C)C)NC(=O)[C@H](Cc1ccc(O)cc1)NC(=O)[C@H](CCCCN)NC(=O)[C@H](CO)NC(=O)[C@H](Cc1ccc(O)cc1)NC(=O)[C@H](CC(=O)O)NC(=O)[C@H](CO)NC(=O)[C@@H](NC(=O)[C@H](Cc1ccccc1)NC(=O)[C@@H](NC(=O)CNC(=O)[C@H](CCC(N)=O)NC(=O)C(C)(C)NC(=O)[C@@H](N)Cc1c[nH]cn1)[C@@H](C)O)[C@@H](C)O)C(=O)N[C@@H](C)C(=O)N[C@@H](C)C(=O)N[C@@H](CCC(=O)O)C(=O)N[C@@H](CC(=O)O)C(=O)N[C@@H](Cc1ccccc1)C(=O)N[C@H](C(=O)N[C@@H](CCC(=O)O)C(=O)N[C@@H](Cc1c[nH]c2ccccc12)C(=O)N[C@@H](CC(C)C)C(=O)N[C@@H](CC(C)C)C(=O)N[C@@H](CO)C(=O)N[C@@H](C)C(N)=O)C(C)C)C(=O)O` [Compound 42] (H-H[Aib]QGTFTSDYSKYLDSK([γGlu-Palmitoyl])AAEDFVEWLLSA-NH2), on human Glucagon-R, the EC50 amounted to 0.27 nM.

On to “H-HSQGTFTSDYSKYLDSKAAHDFVEWLLRA-NH2 [Compound 1]”, for which, in data set [3], the “liver weight/body weight ratio, high dose” value is recorded as “significantly increased”. Further, the half-life in data set [4] was 13.8 min.

Take `CCCCCCCCCCCCCCCC(=O)NCCCC(=O)NCCCC[C@H](NC(=O)[C@H](CO)NC(=O)[C@H](CC(=O)O)NC(=O)[C@H](CC(C)C)NC(=O)[C@H](Cc1ccc(O)cc1)NC(=O)[C@H](CCCCN)NC(=O)[C@H](CO)NC(=O)[C@H](Cc1ccc(O)cc1)NC(=O)[C@H](CC(=O)O)NC(=O)[C@H](CO)NC(=O)[C@@H](NC(=O)[C@H](Cc1ccccc1)NC(=O)[C@@H](NC(=O)CNC(=O)[C@H](CCC(N)=O)NC(=O)C(C)(C)NC(=O)[C@@H](N)Cc1c[nH]cn1)[C@@H](C)O)[C@@H](C)O)C(=O)N[C@@H](C)C(=O)N[C@@H](C)C(=O)N[C@@H](Cc1c[nH]cn1)C(=O)N[C@@H](CC(=O)O)C(=O)N[C@@H](Cc1ccccc1)C(=O)N[C@H](C(=O)N[C@@H](CCC(=O)O)C(=O)N[C@@H](Cc1c[nH]c2ccccc12)C(=O)N[C@@H](CC(C)C)C(=O)N[C@@H](CC(C)C)C(=O)N[C@@H](CO)C(=O)N[C@@H](C)C(N)=O)C(C)C` [Compound 27]: the EC50 on human Glucagon-R is 0.147 nM.
